Results: patent US20020137154A1, “Methods for improving cell growth and alcohol production during fermentation” (priority 2000, published 2002)

Tested on: Klebsiella oxytoca P2
Experiment: Batch fermentation of Klebsiella oxytoca P2 in 1% CSL medium and xylose with acetaldehyde: ethanol production and cell growth
Type: cell-based
Details: for Ethanol Production Maximum / Ethanol Production Maximum % Control / Ethanol yield / Initial Growth (OD @ 24 h) % Control / Initial Growth (OD @ 24 h) OD / Maximum Cell Density % Control / Maximum Cell Density OD / Maximum Cell Density Time / Time to completion / Volumetric Productivity % Control (based on Avg) / Volumetric Productivity % Control (based on Max) / Volumetric Productivity Average / Volumetric Productivity Maximum: K. oxytoca P2, 1% CSL+xylose
Protocol: Two types of media were tested: 1% CSL and Luria broth (LB). Each contained 97 g of either xylose or glucose per liter. Luria Broth consists of, per liter: 10 g Difco® Tryptone, 5 g Difco® Yeast Extract and 5 g NaCl. The 1% CSL medium consists of Corn Steep Liquor (1% w/v) plus mineral salts (mineral salts per liter: 1 g of KH2PO4. 0.5 g of K2HPO4, 3.1 g of (NH4)2SO4, 0.4 g of MgCl2·6H2), and 20 mg FeCl3·6H2O).
Luria Broth was prepared by autoclaving a 2× nutrient stock containing, per liter: 20 g Difco® Tryptone, 10 g Difo® Yeast Extract, and 10 g NaCl. Sugars (xylose or glucose) were autoclaved separately. A 1% CSL medium was prepared as follows: Commercial Corn Steep Liquor (CSL; 50% dry weight/50% water) was diluted with tap water to make a 20X stock containing 100 g dry weight of Corn Steep Liquor/L and was adjusted to pH 7.2 with NaOH (50%). After sterilization by autoclaving, the 20X CSL stock was clarified by centrifugation at 5000×g for 10 minutes. Magnesium was added as a 100× stock solution (40 g/L MgCl2·6H2O). Iron was added as a 1000× stock solution made by dissolving 20 g FeCl3·6H2O in 175 mL of HCl and adjusting to 1 L with sterile water. Nitrogen, sulfur and phosphorus were added using a 20× stock solution containing the following (per liter): 20 g of KH2PO4, 10 g of K2HPO4 and 62 g of (NH4)2SO4. Stock solutions containing minerals were sterilized separately by autoclaving. Final media was prepared by adding 750 mL of water to 1 L bottle containing 100 g of xylose or glucose. This solution was autoclaved, and stock solutions were added to provide a 1× concentration, and the final volume adjusted to 1 L. This broth was further diluted by the addition of supplements (acetaldehyde stock or distilled water) during fermentation with a resulting sugar content of 97 g/L.
Inocula were grown in same media used for fermentation and were prepared as follows. Three colonies from a fresh plate were used to inoculate seed cultures: 250-mL flask containing 100 mL medium. These cultures were grown with agitation (120 rpm) for 12-16 hours at 35° C. to a final OD550nm of approximately 2.0-2.5. Cells were harvested by centrifugation at 5000×g for 5 minutes, and resuspended in fresh media to an OD550nm of 0.1. The resulting suspension was distributed into 500-mL beakers containing 345 ml each of fermentation medium. Acetaldehyde was added as indicated. Batch fermentations (35° C., 100 rpm) were maintained at pH 6.5 by the automatic addition of 2N KOH. Cell mass, ethanol, and base addition (2N KOH) were recorded during 96 hours of incubation.
Cell mass was estimated by measuring OD550nm using Baush & Lomb® Spectronic 70 spectrophotometer. […] Ethanol was measured by gas chromatography using a Varian® 3400 CX gas chromatograph with 1-propanol as an internal standard.
This example describes the effect of the addition of acetaldehyde to 1% CSL and xylose medium, which has been inoculated with ethanologenic, cells, i.e., Klebsiella oxytoca P2.
Maximum ethanol production is shown in grams/liter (g/L). The ethanol yield is shown in grams of ethanol/grams of added sugar. Maximum volumetric productivity is shown in grams of ethanol/(liter)(hour). The average productivity is calculated form the start of fermentation to the completion of fermentation in grams ethanol/(liter)(hour).
Acetaldehyde was added to the fermentation medium at five different concentrations and time points. Where only one acetaldehyde value is provided, this amount of acetaldehyde was added at the start of fermentation only (i.e., 0.25 g/L acetaldehyde or 0.5 g/L). Where two or three additions are indicated, the first volume was added at the start of fermentation and additional doses of the nutrient compound were added after 8 hours of fermentation or at 8-hour intervals.

[1] = 2 × 0.25 g/L (start, after 8 hours)
[2] = 3 × 0.25 g/L (start, then 8-hour intervals)
[3] = K. oxytoca P2, CSL and xylose, 0.5 g/L at the start

CC=O [Acetaldehyde, acetaldehyde]
Ethanol Production Maximum (0.25 g/L at start): 25.43 g/L | Ethanol Production Maximum % Control (0.25 g/L at start): 107.35% | Ethanol yield (0.25 g/L at start): 0.262 grams of ethanol/grams of added sugar | Initial Growth (OD @ 24 h) % Control (0.25 g/L at start): 93.90% | Initial Growth (OD @ 24 h) OD (0.25 g/L at start): 3.54 OD | Maximum Cell Density % Control (0.25 g/L at start): 111.96% | Maximum Cell Density OD (0.25 g/L at start): 5.68 OD | Maximum Cell Density Time (0.25 g/L at start): 72.00 h | Time to completion (0.25 g/L at start): >96 h | Volumetric Productivity % Control (based on Avg) (0.25 g/L at start): 107.35% | Volumetric Productivity % Control (based on Max) (0.25 g/L at start): 135.46% | Volumetric Productivity Average (0.25 g/L at start): 0.265 grams ethanol/(liter)(hour) | Volumetric Productivity Maximum (0.25 g/L at start): 0.47 grams of ethanol/(liter)(hour) | Ethanol Production Maximum (0.5 g/L at start): 26.53 g/L | Ethanol Production Maximum % Control (0.5 g/L at start): 111.98% | Ethanol yield (0.5 g/L at start): 0.273 grams of ethanol/grams of added sugar | Initial Growth (OD @ 24 h) % Control (0.5 g/L at start): 69.39% | Initial Growth (OD @ 24 h) OD (0.5 g/L at start): 2.61 OD | Maximum Cell Density % Control (0.5 g/L at start): 116.26% | Maximum Cell Density OD (0.5 g/L at start): 5.89 OD | Maximum Cell Density Time (0.5 g/L at start): 96.00 h | Time to completion (0.5 g/L at start): >96 h | Volumetric Productivity % Control (based on Avg) (0.5 g/L at start): 111.98% | Volumetric Productivity % Control (based on Max) (0.5 g/L at start): 147.11% | Volumetric Productivity Average (0.5 g/L at start): 0.276 grams ethanol/(liter)(hour) | Volumetric Productivity Maximum (0.5 g/L at start): 0.51 grams of ethanol/(liter)(hour) | Ethanol Production Maximum [1]: 25.56 g/L | Ethanol Production Maximum % Control [1]: 107.88% | Ethanol yield [1]: 0.263 grams of ethanol/grams of added sugar | Initial Growth (OD @ 24 h) % Control [1]: 88.59% | Initial Growth (OD @ 24 h) OD [1]: 3.34 OD | Maximum Cell Density % Control [1]: 104.50% | Maximum Cell Density OD [1]: 5.30 OD | Maximum Cell Density Time [1]: 96.00 h | Time to completion [1]: >96 h | Volumetric Productivity % Control (based on Avg) [1]: 107.88% | Volumetric Productivity % Control (based on Max) [1]: 126.68% | Volumetric Productivity Average [1]: 0.266 grams ethanol/(liter)(hour) | Volumetric Productivity Maximum [1]: 0.44 grams of ethanol/(liter)(hour) | Ethanol Production Maximum [2]: 26.14 g/L | Ethanol Production Maximum % Control [2]: 110.32% | Ethanol yield [2]: 0.269 grams of ethanol/grams of added sugar | Initial Growth (OD @ 24 h) % Control [2]: 95.66% | Initial Growth (OD @ 24 h) OD [2]: 3.60 OD | Maximum Cell Density % Control [2]: 106.51% | Maximum Cell Density OD [2]: 5.40 OD | Maximum Cell Density Time [2]: 72.00 h | Time to completion [2]: >96 h | Volumetric Productivity % Control (based on Avg) [2]: 110.32% | Volumetric Productivity % Control (based on Max) [2]: 135.55% | Volumetric Productivity Average [2]: 0.272 grams ethanol/(liter)(hour) | Volumetric Productivity Maximum [2]: 0.47 grams of ethanol/(liter)(hour) | ethanol production as compared to the control [3]: highest amount of ethanol production | initial growth and maximum cell density as compared to the control [3]: increased initial growth and maximum cell density
